Article PMC10673995, “Discovery of a novel cardiac-specific myosin modulator using artificial intelligence-based virtual screening” (Nature Communications, 2023)
Several values for one entry are separate records, joined by “and”; a condition that tells them apart may be missing. Identical values can stand only once.

Biological target: bovine cardiac myosin S1 (Bos taurus, UniProt Q9BE39)
Assay: mant-ATP chase single nucleotide turnover, myosin S1;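 note: 0.4 µM S1 preloaded with equimolar mant-ATP, chased by 2 mM ATP, mant fluorescence (ex 360, em 450 nm) read each second over 15 min at 25 °C, biexponential fit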
Details: for Representative Traces (mant-ATP chase, normalised signal): representative trace, sheet Figure 3a
[1] = Beta-cardiac myosin S1, individual replicates

Sequence of bovine cardiac myosin S1 (Q9BE39 85-778 limits assumed): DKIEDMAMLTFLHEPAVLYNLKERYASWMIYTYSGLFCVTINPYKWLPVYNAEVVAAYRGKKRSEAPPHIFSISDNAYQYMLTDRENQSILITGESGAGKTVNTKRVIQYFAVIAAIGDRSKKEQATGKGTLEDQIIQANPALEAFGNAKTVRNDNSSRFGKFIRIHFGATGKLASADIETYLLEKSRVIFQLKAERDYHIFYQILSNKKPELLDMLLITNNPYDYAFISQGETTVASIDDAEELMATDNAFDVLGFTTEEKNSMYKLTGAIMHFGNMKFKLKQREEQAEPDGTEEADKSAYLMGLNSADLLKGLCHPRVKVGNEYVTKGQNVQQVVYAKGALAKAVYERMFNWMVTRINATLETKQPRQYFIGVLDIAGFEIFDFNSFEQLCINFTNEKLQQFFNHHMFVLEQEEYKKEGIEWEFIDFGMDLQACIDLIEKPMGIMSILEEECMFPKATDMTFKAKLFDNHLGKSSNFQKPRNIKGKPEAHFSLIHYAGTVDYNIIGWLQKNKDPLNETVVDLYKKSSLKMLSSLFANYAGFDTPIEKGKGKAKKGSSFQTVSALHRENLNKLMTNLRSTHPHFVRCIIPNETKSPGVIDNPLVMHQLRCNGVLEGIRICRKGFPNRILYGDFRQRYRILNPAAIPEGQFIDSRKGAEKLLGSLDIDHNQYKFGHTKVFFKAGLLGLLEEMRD
Sequence of bovine cardiac myosin S1 (P85100 whole entry partner): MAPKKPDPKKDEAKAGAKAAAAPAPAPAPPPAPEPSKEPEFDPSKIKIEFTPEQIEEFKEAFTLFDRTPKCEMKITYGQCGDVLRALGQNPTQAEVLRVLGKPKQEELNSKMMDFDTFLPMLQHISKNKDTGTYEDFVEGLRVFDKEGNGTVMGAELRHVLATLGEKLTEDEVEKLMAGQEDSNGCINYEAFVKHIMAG
Excerpt: In contrast to the isolated myosin motors, synthetic thick filaments contain two myosin head domains per molecule connected via their coiled-coil tail.
Chase of mant-ATP loaded cardiac myosin S1 with ATP leads to a decrease in the mant fluorescence intensity which is best described by a bi-exponential decay function with an initial fast phase followed by a second slower phase, corresponding to the so-called disordered (DRX) and super-relaxed state (SRX) of myosin, respectively.
Bovine myosin S1 and synthetic thick filament concentrations were adjusted to 0.4 μmol L^−1 with assay buffer and 40 μL aliquoted into individual wells of a black 384-well plate (Greiner). Mant-ATP (JenaBioscience) was added to each well to a final concentration of 0.4 μmol L^−1 using an automated injector unit in a ClarioStar Plate Reader (BMG LabTech) and the system was allowed to age for 1 min. The chase phase was started by adding a final concentration of 2 mmol L^−1 ATP using a second automated injector unit. Fluorescence intensity from each well was constantly measured for 15 min every 1 sec at 25 °C with the following settings: excitation at 360 nm with a 20 nm bandwidth and emission at 450 nm with a 20 nm bandwidth.

SMILES: CCc1cc2c(=O)n(NC(=S)NC(C)C)cnc2s1 [F10]
- kslow (2 μmol L^-1 Mavacamten or 20 μmol L^-1 F10, control 0.0058 ± 0.0010): 0.0014 ± 0.0002 s⁻¹
- kfast [1]: 0.05055 s⁻¹ and 0.0447 s⁻¹ and 0.0368 s⁻¹ and 0.05306 s⁻¹ and 0.06378 s⁻¹ and 0.02378 s⁻¹
- kslow [1]: 0.0006967 s⁻¹ and 0.00183 s⁻¹ and 0.001814 s⁻¹ and 0.000778 s⁻¹ and 0.001483 s⁻¹ and 0.001764 s⁻¹
- slow phase [1]: 77.15% and 78.62% and 63.91% and 49.91% and 65.48% and 83.8%
- Representative Traces, normalised fluorescence (t 396 s): 0.3381
- Representative Traces, normalised fluorescence (t 397 s): 0.3913
- Representative Traces, normalised fluorescence (t 398 s): 0.3527
- Representative Traces, normalised fluorescence (t 399 s): 0.3731
- Representative Traces, normalised fluorescence (t 400 s): 0.3893
- Representative Traces, normalised fluorescence (t 401 s): 0.3649
- Representative Traces, normalised fluorescence (t 402 s): 0.346
- Representative Traces, normalised fluorescence (t 403 s): 0.3664
- Representative Traces, normalised fluorescence (t 404 s): 0.3754
- Representative Traces, normalised fluorescence (t 405 s): 0.395
- Representative Traces, normalised fluorescence (t 406 s): 0.3542
- Representative Traces, normalised fluorescence (t 407 s): 0.3529
- Representative Traces, normalised fluorescence (t 408 s): 0.371
- Representative Traces, normalised fluorescence (t 409 s): 0.3805
- Representative Traces, normalised fluorescence (t 410 s): 0.3829
- Representative Traces, normalised fluorescence (t 411 s): 0.3594
- Representative Traces, normalised fluorescence (t 412 s): 0.3318
- Representative Traces, normalised fluorescence (t 413 s): 0.3454
- Representative Traces, normalised fluorescence (t 414 s): 0.3732
- Representative Traces, normalised fluorescence (t 415 s): 0.3239
- Representative Traces, normalised fluorescence (t 416 s): 0.3536
- Representative Traces, normalised fluorescence (t 417 s): 0.3763
- Representative Traces, normalised fluorescence (t 418 s): 0.4062
- Representative Traces, normalised fluorescence (t 419 s): 0.3409
- Representative Traces, normalised fluorescence (t 420 s): 0.3417
- Representative Traces, normalised fluorescence (t 421 s): 0.3218
- Representative Traces, normalised fluorescence (t 422 s): 0.3761
- Representative Traces, normalised fluorescence (t 423 s): 0.3809
- Representative Traces, normalised fluorescence (t 424 s): 0.3886
- Representative Traces, normalised fluorescence (t 425 s): 0.4176
- Representative Traces, normalised fluorescence (t 426 s): 0.3716
- Representative Traces, normalised fluorescence (t 427 s): 0.348
- Representative Traces, normalised fluorescence (t 428 s): 0.3822
- Representative Traces, normalised fluorescence (t 429 s): 0.3572
- Representative Traces, normalised fluorescence (t 430 s): 0.3286
- Representative Traces, normalised fluorescence (t 431 s): 0.4152
- Representative Traces, normalised fluorescence (t 432 s): 0.3207
- Representative Traces, normalised fluorescence (t 433 s): 0.376
- Representative Traces, normalised fluorescence (t 434 s): 0.351
- Representative Traces, normalised fluorescence (t 435 s): 0.3814
- Representative Traces, normalised fluorescence (t 436 s): 0.3747
- Representative Traces, normalised fluorescence (t 437 s): 0.339
- Representative Traces, normalised fluorescence (t 438 s): 0.3394
- Representative Traces, normalised fluorescence (t 439 s): 0.2828
- Representative Traces, normalised fluorescence (t 440 s): 0.3588
- Representative Traces, normalised fluorescence (t 441 s): 0.3824
- Representative Traces, normalised fluorescence (t 442 s): 0.3473
- Representative Traces, normalised fluorescence (t 443 s): 0.3776
- Representative Traces, normalised fluorescence (t 444 s): 0.2942
- Representative Traces, normalised fluorescence (t 445 s): 0.3451
- Representative Traces, normalised fluorescence (t 446 s): 0.3599
- Representative Traces, normalised fluorescence (t 447 s): 0.3632
- Representative Traces, normalised fluorescence (t 448 s): 0.3962
- Representative Traces, normalised fluorescence (t 449 s): 0.3522
- Representative Traces, normalised fluorescence (t 450 s): 0.334
- Representative Traces, normalised fluorescence (t 451 s): 0.3312
- Representative Traces, normalised fluorescence (t 452 s): 0.3355
- Representative Traces, normalised fluorescence (t 453 s): 0.3202
- Representative Traces, normalised fluorescence (t 454 s): 0.3011
- Representative Traces, normalised fluorescence (t 455 s): 0.3492
- Representative Traces, normalised fluorescence (t 456 s): 0.2942
- Representative Traces, normalised fluorescence (t 457 s): 0.3901
- Representative Traces, normalised fluorescence (t 458 s): 0.3305
- Representative Traces, normalised fluorescence (t 459 s): 0.3712
- Representative Traces, normalised fluorescence (t 460 s): 0.3492
- Representative Traces, normalised fluorescence (t 461 s): 0.3691
- Representative Traces, normalised fluorescence (t 462 s): 0.3499
- Representative Traces, normalised fluorescence (t 463 s): 0.3959
- Representative Traces, normalised fluorescence (t 464 s): 0.3352
- Representative Traces, normalised fluorescence (t 465 s): 0.2964
- Representative Traces, normalised fluorescence (t 466 s): 0.3332
- Representative Traces, normalised fluorescence (t 467 s): 0.3397
- Representative Traces, normalised fluorescence (t 468 s): 0.2957
- Representative Traces, normalised fluorescence (t 469 s): 0.3164
- Representative Traces, normalised fluorescence (t 470 s): 0.3318
- Representative Traces, normalised fluorescence (t 471 s): 0.303
- Representative Traces, normalised fluorescence (t 472 s): 0.2843
- Representative Traces, normalised fluorescence (t 473 s): 0.3488
- Representative Traces, normalised fluorescence (t 474 s): 0.3514
- Representative Traces, normalised fluorescence (t 475 s): 0.3348
- Representative Traces, normalised fluorescence (t 476 s): 0.2621
- Representative Traces, normalised fluorescence (t 477 s): 0.3016
- Representative Traces, normalised fluorescence (t 478 s): 0.2808
- Representative Traces, normalised fluorescence (t 479 s): 0.2939
- Representative Traces, normalised fluorescence (t 480 s): 0.3383
- Representative Traces, normalised fluorescence (t 481 s): 0.3502
- Representative Traces, normalised fluorescence (t 482 s): 0.3436
- Representative Traces, normalised fluorescence (t 483 s): 0.4051
- Representative Traces, normalised fluorescence (t 484 s): 0.3367
- Representative Traces, normalised fluorescence (t 485 s): 0.376
- Representative Traces, normalised fluorescence (t 486 s): 0.3528
- Representative Traces, normalised fluorescence (t 487 s): 0.3472
- Representative Traces, normalised fluorescence (t 488 s): 0.3853
- Representative Traces, normalised fluorescence (t 489 s): 0.3935
- Representative Traces, normalised fluorescence (t 490 s): 0.3358
- Representative Traces, normalised fluorescence (t 491 s): 0.3169
- Representative Traces, normalised fluorescence (t 492 s): 0.3123
- Representative Traces, normalised fluorescence (t 493 s): 0.2845
- Representative Traces, normalised fluorescence (t 494 s): 0.2849
- Representative Traces, normalised fluorescence (t 495 s): 0.3259
- Representative Traces (mant-ATP chase, normalised signal) (t = 796 s): 0.1783
- Representative Traces (mant-ATP chase, normalised signal) (t = 797 s): 0.1159
